Measured values from paper PMC11149885 (PLOS ONE, 2024).
Like-named read-outs stand apart in the source and are kept apart here.

How the values were obtained:
FGFR1 = target: T1, FGFR1 (Homo sapiens, UniProt P11362); assay: HotSpot kinase screen; type: biochemical; conditions: 10μM ATP
T1 construct: purchased Reaction Biology Corporation (contract assay)

FGFR3 = target: T2, FGFR3 (Homo sapiens, UniProt P22607); assay: HotSpot kinase screen; type: biochemical; conditions: 10μM ATP
T2 construct: purchased Reaction Biology Corporation (contract assay)

VEGFR2 [1] = target: T3, VEGFR2 (Homo sapiens, UniProt P35968); assay: HotSpot kinase screen; type: biochemical; conditions: 10μM ATP
T3 construct: purchased Millipore Corporation (Dundee, Scotland) or Reaction Biology Corporation (contract assay)
T3 sequence (P35968 20-1356): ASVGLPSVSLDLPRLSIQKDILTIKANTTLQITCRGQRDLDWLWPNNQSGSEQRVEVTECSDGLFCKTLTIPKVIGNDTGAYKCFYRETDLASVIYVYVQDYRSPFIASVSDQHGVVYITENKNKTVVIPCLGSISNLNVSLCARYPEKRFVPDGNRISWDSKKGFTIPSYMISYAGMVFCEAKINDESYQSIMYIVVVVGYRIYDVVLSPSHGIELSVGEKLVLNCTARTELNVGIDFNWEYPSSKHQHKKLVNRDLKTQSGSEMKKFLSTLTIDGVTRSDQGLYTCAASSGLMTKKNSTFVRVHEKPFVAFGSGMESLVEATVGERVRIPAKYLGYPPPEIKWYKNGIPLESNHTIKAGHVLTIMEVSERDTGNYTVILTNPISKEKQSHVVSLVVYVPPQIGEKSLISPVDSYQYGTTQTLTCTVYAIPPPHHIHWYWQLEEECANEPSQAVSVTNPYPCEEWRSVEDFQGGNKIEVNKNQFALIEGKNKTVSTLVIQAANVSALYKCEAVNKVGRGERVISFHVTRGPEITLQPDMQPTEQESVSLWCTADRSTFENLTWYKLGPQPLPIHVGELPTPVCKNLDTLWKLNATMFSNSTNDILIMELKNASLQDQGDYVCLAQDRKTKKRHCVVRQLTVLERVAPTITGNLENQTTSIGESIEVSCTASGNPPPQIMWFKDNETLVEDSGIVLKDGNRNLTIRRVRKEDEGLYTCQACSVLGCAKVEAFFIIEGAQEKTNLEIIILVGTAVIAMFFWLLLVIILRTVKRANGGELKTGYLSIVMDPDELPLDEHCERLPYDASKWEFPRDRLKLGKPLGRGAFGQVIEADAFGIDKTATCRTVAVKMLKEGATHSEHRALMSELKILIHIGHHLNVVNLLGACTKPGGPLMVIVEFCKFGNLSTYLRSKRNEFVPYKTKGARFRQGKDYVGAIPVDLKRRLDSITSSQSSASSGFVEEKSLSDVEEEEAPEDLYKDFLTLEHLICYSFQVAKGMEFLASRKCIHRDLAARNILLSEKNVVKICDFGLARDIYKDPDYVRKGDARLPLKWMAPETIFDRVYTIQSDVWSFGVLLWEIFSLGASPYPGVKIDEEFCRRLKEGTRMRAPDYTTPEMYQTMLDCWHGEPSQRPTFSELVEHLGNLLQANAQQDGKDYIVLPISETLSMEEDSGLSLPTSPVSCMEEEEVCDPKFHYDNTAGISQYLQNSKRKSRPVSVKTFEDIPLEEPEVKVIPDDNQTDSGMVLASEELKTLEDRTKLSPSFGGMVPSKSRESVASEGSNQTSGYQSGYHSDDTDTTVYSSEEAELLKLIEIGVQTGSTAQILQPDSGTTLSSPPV

FGFR2 = target: T4, FGFR2 (Homo sapiens, UniProt P21802); assay: HotSpot kinase screen; type: biochemical; conditions: 10μM ATP
T4 construct: purchased Reaction Biology Corporation (contract assay)
Description: (§1) Measurement of kinase activity was performed by Reaction Biology Corporation (Reaction Biology Corporation, Malvern, PA), using the HotSpot™ assay. The screen focused on RTKs reported in the literature to play a major role in the regulation of angiogenesis (VEGFR1, VEGFR2, and VEGFR3; fibroblast growth factor receptor [FGFR] 1, 2, and 3; and platelet-derived growth factor receptor beta [PDGFRβ]) as well as an RTK essential for maintaining blood vessel stability (TIE2). For the profiling, specific kinase/substrate pairs and required cofactors were prepared in a reaction buffer (20mM Hepes [pH 7.5], 10mM MgCl2, 1mM EGTA, 0.02% Brij35, 0.02 mg/mL BSA, 0.1mM Na3VO4, 2mM DTT, 1% dimethyl sulfoxide [DMSO]). TKI compounds were diluted to 10μM and 1μM concentrations for the screens and after addition to the reaction buffer incubated for 20 minutes, followed by the addition of a mixture of ATP (Sigma, St. Louis, MO) and ^33P-ATP (Perkin Elmer, Waltham, MA) to a final ATP concentration of 10μM. Reactions were carried out at room temperature for 2 hours, followed by spotting of the reactions onto P81 ion exchange filter paper (Whatman Inc., Piscataway, NJ). Unbound phosphate was removed by extensive washing of the filters. […] Kinome TREEspot images representing levels of inhibition were prepared using Kinome Mapper (https://www.reactionbiology.com/resources/tools/kinase-mapper).

VEGFR3 [2] = target: T5, VEGFR3 (Homo sapiens, UniProt P35916); assay: HotSpot kinase screen; type: biochemical; conditions: 10μM ATP
T5 construct: purchased Millipore Corporation (Dundee, Scotland) or Reaction Biology Corporation (contract assay)
T5 sequence (P35916 25-1363): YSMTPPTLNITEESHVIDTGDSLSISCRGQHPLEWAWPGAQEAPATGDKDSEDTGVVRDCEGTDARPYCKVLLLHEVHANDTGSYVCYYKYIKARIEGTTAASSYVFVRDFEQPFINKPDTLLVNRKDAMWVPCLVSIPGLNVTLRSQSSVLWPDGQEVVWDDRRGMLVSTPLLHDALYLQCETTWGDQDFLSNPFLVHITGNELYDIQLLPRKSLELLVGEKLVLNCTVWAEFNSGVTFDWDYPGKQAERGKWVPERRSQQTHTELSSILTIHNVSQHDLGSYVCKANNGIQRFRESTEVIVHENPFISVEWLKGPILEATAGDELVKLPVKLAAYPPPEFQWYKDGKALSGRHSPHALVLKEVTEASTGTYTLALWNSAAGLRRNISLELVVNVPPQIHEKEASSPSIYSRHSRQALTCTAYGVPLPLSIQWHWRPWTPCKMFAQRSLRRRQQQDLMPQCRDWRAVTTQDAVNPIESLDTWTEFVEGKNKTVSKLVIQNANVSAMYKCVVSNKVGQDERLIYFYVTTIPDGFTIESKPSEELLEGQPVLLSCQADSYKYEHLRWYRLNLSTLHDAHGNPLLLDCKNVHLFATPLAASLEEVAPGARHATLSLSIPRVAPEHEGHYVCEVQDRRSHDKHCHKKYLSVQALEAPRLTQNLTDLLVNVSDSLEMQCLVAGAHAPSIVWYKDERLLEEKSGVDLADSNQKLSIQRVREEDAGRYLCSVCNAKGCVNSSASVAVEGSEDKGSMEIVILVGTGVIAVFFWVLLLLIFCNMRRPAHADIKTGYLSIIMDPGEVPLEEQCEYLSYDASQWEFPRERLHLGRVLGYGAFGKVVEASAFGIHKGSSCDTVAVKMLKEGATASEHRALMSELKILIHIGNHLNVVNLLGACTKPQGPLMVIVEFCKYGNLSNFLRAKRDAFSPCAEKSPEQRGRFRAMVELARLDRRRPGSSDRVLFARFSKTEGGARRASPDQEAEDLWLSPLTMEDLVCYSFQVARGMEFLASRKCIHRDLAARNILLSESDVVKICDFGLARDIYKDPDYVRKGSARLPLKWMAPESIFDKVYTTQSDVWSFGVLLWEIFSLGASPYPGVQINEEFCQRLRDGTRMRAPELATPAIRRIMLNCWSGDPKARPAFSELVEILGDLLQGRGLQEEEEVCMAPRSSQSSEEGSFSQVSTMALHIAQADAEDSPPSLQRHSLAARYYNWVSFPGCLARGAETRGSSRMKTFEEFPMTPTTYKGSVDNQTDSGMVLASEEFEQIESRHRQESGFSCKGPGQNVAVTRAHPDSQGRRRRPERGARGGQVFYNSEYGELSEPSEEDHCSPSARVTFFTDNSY
Description: as §1

PDGFRβ = target: T6, PDGFRβ (Homo sapiens, UniProt P09619); assay: HotSpot kinase screen; type: biochemical; conditions: 10μM ATP
T6 construct: purchased Reaction Biology Corporation (contract assay)

VEGFR3 [3] = target: T5, VEGFR3; assay: Ten-dose IC50 measurement; type: biochemical; conditions: 10μM ATP
[4] = test system: VEGF-A–induced sprouting of HUVECs; assay: HUVEC spheroid sprouting assay; type: cell-based, human; conditions: for cumulative sprout length per spheroid (CSL), mean: 25 ng/mL VEGF-165, 24 hours
Description: The three TKI compounds were tested by Reaction Biology Europe (Freiburg, Germany) in the spheroid-based cellular angiogenesis assay to determine their effect on VEGF-A–induced sprouting of HUVECs. Primary HUVECs from pooled donors at passage 3 to 4 (PromoCell, Heidelberg, Germany) were grown in endothelial cell growth and basal medium (ECGM/ECBM, PromoCell). Test compounds were prepared as 100-fold concentrated stock solutions in DMSO and pre-diluted in basal medium. HUVECs were stimulated using 25 ng/mL VEGF-165 (Reaction Biology Europe, Freiburg, Germany) pre-diluted in basal medium.
Spheroids were prepared as described by pipetting 400 HUVECs in a hanging drop on plastic dishes to allow overnight spheroid aggregation. Fifty HUVEC spheroids were seeded in 0.9 mL of a collagen gel and pipetted into individual wells of a 24-well plate to allow polymerization. Test compounds and VEGF-165 were added after 30 minutes by pipetting 100 μL of a ten-fold concentrated solution onto the polymerized gel. Plates were incubated at 37°C for 24 hours, and cells were fixed by adding 4% paraformaldehyde (Roth, Karlsruhe, Germany). Sprouting intensity of HUVEC spheroids treated with the test samples was quantitated using an image analysis system to determine the cumulative sprout length (CSL) per spheroid. Images of single spheroids were captured using an inverted microscope and the digital imaging software NIS-Elements BR 3.0 (Nikon). Spheroid pictures were uploaded to Wimasis (www.wimasis.com) for image analysis. The CSL of each spheroid was determined using the imaging analysis tool WimSprout. The mean CSL of ten randomly selected spheroids was analyzed as an individual data point.

VEGFR2 [5] = target: T3, VEGFR2; assay: Previously reported IC50 (literature); type: biochemical; conditions: nM value converted, S2 Fig legend
VEGFR2 [6] = target: T3, VEGFR2; conditions: cited from earlier work
synthetic melanin = assay: in vitro
VEGFR1 [7] = target: T7, VEGFR1 (Homo sapiens, UniProt P17948); assay: Ten-dose IC50 measurement
T7 sequence (P17948 27-1338): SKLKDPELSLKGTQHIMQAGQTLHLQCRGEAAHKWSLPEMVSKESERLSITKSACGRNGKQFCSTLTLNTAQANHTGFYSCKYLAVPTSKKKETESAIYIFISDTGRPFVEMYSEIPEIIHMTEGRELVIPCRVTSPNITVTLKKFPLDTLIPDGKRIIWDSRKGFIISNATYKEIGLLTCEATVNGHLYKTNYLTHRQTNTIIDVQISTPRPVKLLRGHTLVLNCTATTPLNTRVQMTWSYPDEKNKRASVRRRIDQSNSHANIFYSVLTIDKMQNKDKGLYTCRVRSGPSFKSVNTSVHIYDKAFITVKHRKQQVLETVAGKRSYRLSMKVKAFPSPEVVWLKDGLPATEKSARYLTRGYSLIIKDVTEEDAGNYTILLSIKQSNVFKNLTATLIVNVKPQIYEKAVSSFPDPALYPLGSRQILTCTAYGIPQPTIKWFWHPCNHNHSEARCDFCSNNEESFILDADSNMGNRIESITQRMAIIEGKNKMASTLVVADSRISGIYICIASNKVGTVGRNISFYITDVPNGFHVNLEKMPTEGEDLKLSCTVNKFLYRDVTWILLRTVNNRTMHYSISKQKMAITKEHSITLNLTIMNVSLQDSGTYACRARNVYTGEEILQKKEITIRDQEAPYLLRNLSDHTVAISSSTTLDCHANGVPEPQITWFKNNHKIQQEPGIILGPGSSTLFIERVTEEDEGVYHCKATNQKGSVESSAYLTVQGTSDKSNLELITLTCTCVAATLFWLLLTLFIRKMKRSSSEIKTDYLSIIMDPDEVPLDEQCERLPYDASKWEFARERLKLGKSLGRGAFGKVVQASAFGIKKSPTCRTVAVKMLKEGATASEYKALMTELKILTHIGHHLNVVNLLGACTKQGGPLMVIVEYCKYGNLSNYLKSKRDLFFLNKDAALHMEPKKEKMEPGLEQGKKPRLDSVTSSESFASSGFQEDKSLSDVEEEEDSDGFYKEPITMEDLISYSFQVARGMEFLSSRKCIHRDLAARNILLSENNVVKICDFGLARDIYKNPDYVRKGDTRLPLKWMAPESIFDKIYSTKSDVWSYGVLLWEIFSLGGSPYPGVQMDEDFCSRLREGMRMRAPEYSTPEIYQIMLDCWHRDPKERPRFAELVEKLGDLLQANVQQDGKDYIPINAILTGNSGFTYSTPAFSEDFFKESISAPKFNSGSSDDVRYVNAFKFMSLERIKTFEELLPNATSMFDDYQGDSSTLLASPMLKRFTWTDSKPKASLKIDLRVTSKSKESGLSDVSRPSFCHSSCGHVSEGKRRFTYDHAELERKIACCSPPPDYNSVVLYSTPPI

TIE2 = TIE2 (Homo sapiens, UniProt Q02763); assay: HotSpot kinase screen; type: biochemical; design: purchased Reaction Biology Corporation (contract assay); conditions: 10μM ATP
Sequence of TIE2 (Q02763 23-1124): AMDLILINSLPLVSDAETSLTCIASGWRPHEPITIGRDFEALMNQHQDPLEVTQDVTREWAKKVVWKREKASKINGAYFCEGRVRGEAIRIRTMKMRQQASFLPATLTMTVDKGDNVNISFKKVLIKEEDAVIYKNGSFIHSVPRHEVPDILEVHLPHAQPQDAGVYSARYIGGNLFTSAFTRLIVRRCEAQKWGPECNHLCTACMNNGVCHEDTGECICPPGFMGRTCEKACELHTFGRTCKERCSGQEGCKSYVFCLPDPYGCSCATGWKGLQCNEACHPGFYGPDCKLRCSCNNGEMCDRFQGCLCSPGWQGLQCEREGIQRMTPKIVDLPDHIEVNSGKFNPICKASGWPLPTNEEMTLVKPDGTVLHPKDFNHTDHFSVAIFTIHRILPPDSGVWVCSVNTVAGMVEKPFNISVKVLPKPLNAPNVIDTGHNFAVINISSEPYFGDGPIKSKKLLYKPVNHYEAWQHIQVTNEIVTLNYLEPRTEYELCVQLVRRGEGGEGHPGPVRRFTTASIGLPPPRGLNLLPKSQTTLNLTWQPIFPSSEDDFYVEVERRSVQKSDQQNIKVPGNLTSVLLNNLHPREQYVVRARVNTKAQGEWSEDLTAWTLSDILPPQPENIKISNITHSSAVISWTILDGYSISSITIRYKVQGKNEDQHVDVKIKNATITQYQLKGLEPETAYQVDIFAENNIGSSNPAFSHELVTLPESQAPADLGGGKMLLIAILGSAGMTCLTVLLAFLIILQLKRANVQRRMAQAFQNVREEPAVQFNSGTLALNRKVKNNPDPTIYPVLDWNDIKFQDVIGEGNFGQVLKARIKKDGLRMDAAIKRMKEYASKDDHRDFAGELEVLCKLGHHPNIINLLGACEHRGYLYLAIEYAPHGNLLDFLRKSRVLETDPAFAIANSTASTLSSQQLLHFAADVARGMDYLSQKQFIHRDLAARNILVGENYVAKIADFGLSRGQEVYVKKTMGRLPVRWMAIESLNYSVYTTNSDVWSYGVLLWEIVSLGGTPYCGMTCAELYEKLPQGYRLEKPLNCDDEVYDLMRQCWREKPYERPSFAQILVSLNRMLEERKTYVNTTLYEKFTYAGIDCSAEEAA

VEGFR1 [8] = target: T7, VEGFR1; assay: HotSpot kinase screen; type: biochemical; design: purchased Millipore Corporation (Dundee, Scotland) or Reaction Biology Corporation (contract assay); conditions: 10μM ATP
Description: as §1

## Cc1[nH]c(/C=C2\C(=O)Nc3ccc(F)cc32)c(C)c1C(=O)N[C@H]1CCN(C(=O)N(C)C)C1 [Vorolanib]
FGFR1; 1uM TKI
  Avg % Inhibition FGFR1: 28.53%
FGFR1; 10uM TKI
  Avg % Inhibition FGFR1: 65.32%
FGFR3; 1uM TKI
  Avg % Inhibition FGFR3: 63.96%
FGFR3; 10uM TKI
  Avg % Inhibition FGFR3: 86.13%
VEGFR2 [1]; 1uM TKI
  Avg % Inhibition VEGFR2: 74.78%
VEGFR2 [1]; 10uM TKI
  Avg % Inhibition VEGFR2: 86.6%
FGFR2; 1uM TKI
  Avg % Inhibition FGFR2: 56.64%
FGFR2; 10uM TKI
  Avg % Inhibition FGFR2: 90.82%
VEGFR3 [2]; 1uM TKI
  Avg % Inhibition VEGFR3: 90.14%
VEGFR3 [2]; 10uM TKI
  Avg % Inhibition VEGFR3: 98.55%
PDGFRβ; 1uM TKI
  Avg % Inhibition PDGFRb: 83.57%
PDGFRβ; 10uM TKI
  Avg % Inhibition PDGFRb: 94.8%
VEGFR3 [3]; S1 Dataset, read-out: IC50 VEGFR3
  IC50: 3.39e-08 M
VEGFR3 [3]; 1.00E-05 M TKI
  %Activity VEGFR3: 2.39%
VEGFR3 [3]; 1.11E-06 M TKI
  %Activity VEGFR3: 8.63%
VEGFR3 [3]; 1.23E-07 M TKI
  %Activity VEGFR3: 30.49%
VEGFR3 [3]; 1.37E-08 M TKI
  %Activity VEGFR3: 60.22%
VEGFR3 [3]; 1.52E-09 M TKI
  %Activity VEGFR3: 79.65%
VEGFR3 [3]; 3.33E-06 M TKI
  %Activity VEGFR3: 4.43%
VEGFR3 [3]; 3.70E-07 M TKI
  %Activity VEGFR3: 18.98%
VEGFR3 [3]; 4.12E-08 M TKI
  %Activity VEGFR3: 44.44%
VEGFR3 [3]; 4.57E-09 M TKI
  %Activity VEGFR3: 68.37%
VEGFR3 [3]; 5.08E-10 M TKI
  %Activity VEGFR3: 81.12%
VEGFR3 [3]; Fig 3A inset, unit inferred, plot axes in (M), read-out: Compound IC50 data for VEGFR-3: IC50
  IC50: 3.39e-08 M
[4]; 1.00E-05 M TKI
  cumulative sprout length per spheroid (CSL), mean: 144
[4]; 1.00E-06 M TKI
  cumulative sprout length per spheroid (CSL), mean: 242
[4]; 1.00E-07 M TKI
  cumulative sprout length per spheroid (CSL), mean: 455
[4]; 3.00E-06 M TKI
  cumulative sprout length per spheroid (CSL), mean: 269
[4]; 3.00E-07 M TKI
  cumulative sprout length per spheroid (CSL), mean: 241
[4]; 3.00E-08 M TKI
  cumulative sprout length per spheroid (CSL), mean: 992
[4]; highest test concentration of 1×10^–5M
  vessel sprouting (representative spheroid images): zero vessel sprouting
VEGFR2 [5]
  IC50: 52.3 nM
VEGFR2 [6]; determined by Millipore Corporation prior to the study, read-out: VEGFR2 IC50 (used to set CAM doses)
  IC50: 52 nM
VEGFR2 [6]; previously reported, read-out: VEGFR2 IC50
  IC50: 1.12 nM
Synthetic melanin
  fraction unbound at 1 h: 0.857
VEGFR1 [7]; 1.00E-05 M TKI, 10μM ATP
  %Activity VEGFR1: 15.82%
VEGFR1 [7]; 1.11E-06 M TKI, 10μM ATP
  %Activity VEGFR1: 42.07%
VEGFR1 [7]; 1.37E-08 M TKI, 10μM ATP
  %Activity VEGFR1: 89.38%
VEGFR1 [7]; 1.52E-09 M TKI, 10μM ATP
  %Activity VEGFR1: 85.26%
VEGFR1 [7]; 3.33E-06 M TKI, 10μM ATP
  %Activity VEGFR1: 22.84%
VEGFR1 [7]; 3.70E-07 M TKI, 10μM ATP
  %Activity VEGFR1: 64.45%
VEGFR1 [7]; 4.12E-08 M TKI, 10μM ATP
  %Activity VEGFR1: 79.63%
VEGFR1 [7]; 4.57E-09 M TKI, 10μM ATP
  %Activity VEGFR1: 88.85%
VEGFR1 [7]; Compound IC50 data for VEGFR-1: IC50, Fig 3A inset, unit inferred, plot axes in (M), 10μM ATP
  IC50: 9.44e-07 M
VEGFR1 [7]; IC50 VEGFR1, 10μM ATP, S1 Dataset
  IC50: 9.44e-07 M
TIE2; 1uM TKI
  Avg % Inhibition TIE2: 4.09%
TIE2; 1uM TKI, listed as vorolanib
  Avg % Inhibition TIE2: 4%
TIE2; 10uM TKI
  Avg % Inhibition TIE2: 21.27%
TIE2; 10uM TKI, listed as vorolanib
  Avg % Inhibition TIE2: 21%
VEGFR1 [8]; 1uM TKI
  Avg % Inhibition VEGFR1: 54.61%
VEGFR1 [8]; 10uM TKI
  Avg % Inhibition VEGFR1: 77.43%
